The target of this assay is T1, mAChR M1 (UniProt P11229).
T1 sequence (P11229 1-460): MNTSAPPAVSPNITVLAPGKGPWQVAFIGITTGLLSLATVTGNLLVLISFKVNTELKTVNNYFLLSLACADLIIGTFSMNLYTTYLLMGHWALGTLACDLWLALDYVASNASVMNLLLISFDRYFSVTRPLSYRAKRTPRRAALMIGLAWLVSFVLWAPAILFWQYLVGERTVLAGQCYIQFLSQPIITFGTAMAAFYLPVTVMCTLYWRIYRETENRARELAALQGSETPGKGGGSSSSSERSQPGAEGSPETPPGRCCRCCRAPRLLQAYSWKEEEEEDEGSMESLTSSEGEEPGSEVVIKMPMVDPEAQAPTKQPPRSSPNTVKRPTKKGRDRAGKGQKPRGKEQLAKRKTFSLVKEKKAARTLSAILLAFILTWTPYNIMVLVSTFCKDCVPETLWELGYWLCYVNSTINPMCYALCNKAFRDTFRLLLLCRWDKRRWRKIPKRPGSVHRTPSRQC
The assay can be described thus: mAChR M1 cell-based functional assay (calcium mobilization, antagonist mode). As to conditions: for IC50: concentration of antagonist decreasing calcium flux by 50%, EC80 acetylcholine response, CHO-K1 cells expressing mAChR M1, read-out: Potency (IC50). An excerpt:
Chinese hamster ovary (CHO-K1) cells stably expressing rat (r)M1 were purchased from the American Type Culture Collection and cultured according to their indicated protocol. CHO cells stably expressing human (h)M2, hM3, and hM5 were described previously (Levey, et al., 1991); hM1 and hM4 cDNAs were purchased from Missouri S&T cDNA Resource; rM4 cDNA was provided by T. I. Bonner (National Institutes of Health, Bethesda, Md.). rM2 and rM3 were cloned from a rat brain cDNA library and sequence verified. hM1, rM2, rM3, hM4, and rM4 cDNAs were used to stably transfect CHO-K1 cells purchased from the American Type Culture Collection using Lipofectamine-2000. To make stable rM2, hM2, rM3, hM4, and rM4 cell lines for use in calcium mobilization assays, these cells also were stably transfected with a chimeric G-protein (Gqi5) (provided by B. R. Conklin, University of California, San Francisco) using Lipofectamine 2000. rM1, hM1, rM3, hM3, rM5, and hM5 cells were grown in Ham's F-12 medium containing 10% heat-inactivated fetal bovine serum (FBS), 20 mM HEPES, and 50 μg/mL G418 sulfate. rM2-Gqi5, hM2-Gqi5, and hM4-Gqi5 cells were grown in the same medium also containing 500 μg/mL Hygromycin B. Stable rM4-Gqi5 cells were grown in DMEM containing 10% heat-inactivated FBS, 20 mM HEPES, 400 μg/mL G418 sulfate, and […].
For high throughput measurement of antagonist inhibited increases in intracellular calcium, CHO-K1 cells stably expressing muscarinic receptors were plated in growth medium lacking G418 and hygromycin at 15,000 cells/20 μL/well in Greiner 384-well black-walled, tissue culture (TC)-treated, clear-bottom plates (VWR). Cells were incubated overnight at 37° C. and 5% CO2. The next day, cells were washed using an ELX 405 (BioTek) with four washes (80 μL) of assay buffer then aspirated to 20 μL. Next, 20 μL of 16 μM Fluo-4/acetoxymethyl ester (Invitrogen, Carlsbad, Calif.) prepared as a 2.3 mM stock in DMSO and mixed in a 1:1 ratio with 10% (w/v) Pluronic F-127 and diluted in assay buffer was added to the wells and the cell plates were incubated for 50 min at 37° C. and 5% CO2. Dye was removed by washing with the ELX 405 (four 80 μL washes of assay buffer) then aspirated to 20 μL. Compound master plates were formatted in an 11 point CRC format (1:3 dilutions) in 100% DMSO with a starting concentration of 10 mM using the BRAVO liquid handler (Agilent). Test compound CRCs were then transferred to daughter plates (240 nL) using the Echo acoustic plate reformatter (Labcyte, Sunnyvale, Calif.) and then diluted into assay buffer (40 μL) to a 2× stock using a Thermo Fisher Combi (Thermo Fisher Scientific, Waltham, Mass.).
Calcium flux was measured using the Functional Drug Screening System (FDSS) 6000 (Hamamatsu Corporation, Tokyo, Japan) as an increase in the fluorescent static ratio. Compounds were applied to cells (20 μL, 2×) using the automated system of the FDSS 6000 at 4 s into the 300 s protocol and the data were collected at 1 Hz. At 144 s into the 300 s protocol, 10 μL of an EC20 concentration of the muscarinic receptor agonist acetylcholine was added (5×), followed by the addition of 12 μL an EC80 concentration of acetylcholine at the 230 s time point (5×). Agonist activity was analyzed as a concentration-dependent increase in calcium mobilization upon compound addition. Positive allosteric modulator activity was analyzed as a concentration-dependent increase in the EC20 acetylcholine response. Antagonist activity was analyzed as a concentration-dependent decrease in the EC80 acetylcholine response. Concentration-response curves were generated using a four-parameter logistical equation in XLfit curve fitting software (IDBS, Bridgewater, N.J.) for Excel (Microsoft, Redmond, Wash.) or Prism (GraphPad Software, Inc., San Diego, Calif.).
The calcium mobilization assay was used to determine “potency”.
On the technique in general: Calcium flux is commonly read through the fluorescence of an indicator in the cells.

Where [1] appears, read: activity remaining at top dose of 30 μM test compound, as percentage of the response to an approx. EC80 concentration of ACh.
The mark [2] stands for this setting: dash = baseline or about zero remaining activity (table footnote).

We go through 29 molecules from patent publication US8697888B2, “Substituted (1-(methylsulfonyl)azetidin-3-yl)(heterocycloalkyl)methanone analogs as antagonists of muscarinic acetylcholine M1 receptors” (Vanderbilt University, priority 2012, dated 2014).

The structures appear in SMILES notation. Marks after values point to notes of the source that are not given here.

With `O=C(C1CN(S(=O)(=O)c2ccc3cn[nH]c3c2)C1)N1CCN(c2ccncc2)CC1` [B37], the IC50 – broadly, the concentration needed to halve the response being measured – was > 10000 nM. Moreover, under setting [1], the “Remaining Activity (%)” value is on record as 26%.

Turning to `Cc1cc(N2CCN(C(=O)C3CN(S(=O)(=O)c4cccc5cnccc45)C3)CC2)ccn1` [B6], the IC50 amounted to 120 nM. Besides, the “Remaining Activity (%)” value under setting [2] is on record as “— (Unless otherwise indicated with a numerical value, the percent remaining activity is baseline or about zero, i.e. as indicated by “—”)”. Regarding `O=C(C1CN(S(=O)(=O)c2cccc3c2OCCO3)C1)N1CCN(c2ccncc2)CC1` [B45], the IC50 was > 10000 nM. Also, the “Remaining Activity (%)” value under setting [1] turned out to be 27%. As for `O=C(C1CN(S(=O)(=O)c2cccc3nsnc23)C1)N1CC2CN(c3ccncc3)CC2C1` (stereo not drawn) [B53], under setting [2], the “Remaining Activity (%)” value was “— (Unless otherwise indicated with a numerical value, the percent remaining activity is baseline or about zero, i.e. as indicated by “—”)”. On the same count and under the same terms, to `O=C(C1CN(S(=O)(=O)c2cccc3cnccc23)C1)N1CCN(c2ccncc2)CC1` [B1] belongs “— (Unless otherwise indicated with a numerical value, the percent remaining activity is baseline or about zero, i.e. as indicated by “—”)”. On to `O=C(C1CN(S(=O)(=O)c2cccc(Cl)c2F)C1)N1CCN(c2ccncc2)CC1` [B34], for which, under setting [1], the “Remaining Activity (%)” value was 11%. Regarding `O=C(C1CN(S(=O)(=O)c2cccc3nonc23)C1)N1CC2CN(c3ccncc3)CC2C1` (stereo not drawn) [B56], the IC50 came to 960 nM. The “Remaining Activity (%)” value under setting [2] was “— (Unless otherwise indicated with a numerical value, the percent remaining activity is baseline or about zero, i.e. as indicated by “—”)”. Regarding `O=C(C1CN(S(=O)(=O)c2ccc3[nH]ncc3c2)C1)N1CCN(c2ccncc2)CC1` [B76], the IC50 was > 10000 nM. In addition, the “Remaining Activity (%)” value under setting [1] is listed as “≧80%”.

Consider `O=C(C1CN(S(=O)(=O)c2cccc(OC(F)F)c2)C1)N1CCN(c2ccncc2)CC1` [B68], for which the IC50 is > 10000 nM. Also, under setting [1], the “Remaining Activity (%)” value is “≧80%”. With `O=C(C1CN(S(=O)(=O)c2cccc3cnccc23)C1)N1CC2CN(c3ccncc3)CC2C1` (stereo not drawn) [B3], the IC50 turned out to be 57 nM. Also, the “Remaining Activity (%)” value under setting [2] is recorded as “— (Unless otherwise indicated with a numerical value, the percent remaining activity is baseline or about zero, i.e. as indicated by “—”)”. Take `CN1CCOc2cc(S(=O)(=O)N3CC(C(=O)N4CCN(c5ccncc5)CC4)C3)cnc21` [B73]: the IC50 is > 10000 nM. Also, under setting [1], the “Remaining Activity (%)” value is on record as “≧80%”. For the molecule `O=C(C1CN(S(=O)(=O)c2cccc3cnccc23)C1)N1CCN(c2ccnc(Cl)c2)CC1` [B2], the 50% inhibitory concentration (IC50) turned out to be 48 nM. Also, the “Remaining Activity (%)” value under setting [2] is listed as “— (Unless otherwise indicated with a numerical value, the percent remaining activity is baseline or about zero, i.e. as indicated by “—”)”. For `O=C(C1CN(S(=O)(=O)c2cccc3nonc23)C1)N1CCN(c2ccncc2)CC1` [B8], the IC50 was 290 nM. Also, under setting [2], the “Remaining Activity (%)” value was “— (Unless otherwise indicated with a numerical value, the percent remaining activity is baseline or about zero, i.e. as indicated by “—”)”. Take `O=C(C1CN(S(=O)(=O)c2cccc(OC(F)(F)F)c2)C1)N1CCN(c2ccncc2)CC1` [B69]: the IC50 was > 10000 nM. In addition, the “Remaining Activity (%)” value under setting [1] was “≧80%”. The like results for `O=C(C1CN(S(=O)(=O)c2cccc3nonc23)C1)N1CCCN(c2ccncc2)CC1` [B32] were, in that order, > 10000 nM and 34%.

For `O=C(C1CN(S(=O)(=O)c2cccc(F)c2)C1)N1CC2CN(c3ccncc3)CC2C1` (stereo not drawn) [B59], the IC50 came out at 2100 nM. Besides, the “Remaining Activity (%)” value under setting [2] is “— (Unless otherwise indicated with a numerical value, the percent remaining activity is baseline or about zero, i.e. as indicated by “—”)”. `Cc1cc2c(S(=O)(=O)N3CC(C(=O)N4CCN(c5ccncc5)CC4)C3)cccc2cn1` [B22]: the “Remaining Activity (%)” value under setting [2] is given as “— (Unless otherwise indicated with a numerical value, the percent remaining activity is baseline or about zero, i.e. as indicated by “—”)”. As to `O=C(C1CN(S(=O)(=O)c2cccc3nonc23)C1)N1CCN(c2ccccn2)CC1` [B31], the IC50 was > 10000 nM. In addition, under setting [1], the “Remaining Activity (%)” value stood at 11%. `CC(C)(C)CS(=O)(=O)N1CC(C(=O)N2CCN(c3ccncc3)CC2)C1` [B43]: the IC50 is > 10000 nM. Moreover, the “Remaining Activity (%)” value under setting [1] worked out at 43%. As for `O=C(C1CN(S(=O)(=O)c2cccnc2Cl)C1)N1CC2CN(c3ccncc3)CC2C1` (stereo not drawn) [B54], the IC50 amounted to 930 nM. Moreover, the “Remaining Activity (%)” value under setting [2] was “— (Unless otherwise indicated with a numerical value, the percent remaining activity is baseline or about zero, i.e. as indicated by “—”)”. Turning to `CCC(C)S(=O)(=O)N1CC(C(=O)N2CCN(c3ccncc3)CC2)C1` (stereo not drawn) [B46], the IC50 was > 10000 nM. In addition, the “Remaining Activity (%)” value under setting [1] was found to be 52%. Turning to `O=C(C1CN(S(=O)(=O)c2cccc3nonc23)C1)N1CCC(O)(c2ccncc2)CC1` [B61], the IC50 is > 10000 nM. Besides, the “Remaining Activity (%)” value under setting [1] is listed as “≧80% **”. The like results for `O=C(NC1CCN(c2ccccc2)C1)C1CN(S(=O)(=O)c2cccc3cnccc23)C1` (stereo not drawn) [B82] were, in that order, > 10000 nM and “≧80%”. As for `O=C(C1CN(S(=O)(=O)c2ccc3occc3c2)C1)N1CCN(c2ccncc2)CC1` [B24], the IC50 was found to be 1500 nM. Further, the “Remaining Activity (%)” value under setting [2] was “— (Unless otherwise indicated with a numerical value, the percent remaining activity is baseline or about zero, i.e. as indicated by “—”)”. Take `O=C(C1CN(S(=O)(=O)c2ccccc2OC(F)(F)F)C1)N1CCN(c2ccncc2)CC1` [B29]: the IC50 stood at 2800 nM. For the same molecule, the “Remaining Activity (%)” value under setting [2] is given as “— (Unless otherwise indicated with a numerical value, the percent remaining activity is baseline or about zero, i.e. as indicated by “—”)”. Take `Cn1cnc(S(=O)(=O)N2CC(C(=O)N3CCN(c4ccncc4)CC3)C2)c1` [B66]: the IC50 was > 10000 nM. Further, the “Remaining Activity (%)” value under setting [1] is reported as “≧80%”.

With `O=C(C1CN(S(=O)(=O)c2cccnc2)C1)N1CCN(c2ccncc2)CC1` [B10], the IC50 is 350 nM. Further, the “Remaining Activity (%)” value under setting [2] is “— (Unless otherwise indicated with a numerical value, the percent remaining activity is baseline or about zero, i.e. as indicated by “—”)”. `Cc1cc(N2CCN(C(=O)C3CN(S(=O)(=O)c4cccc5cnccc45)C3)CC2)cc(C)n1` [B14]: the half-inhibitory concentration (IC50) turned out to be 460 nM. In addition, the “Remaining Activity (%)” value under setting [2] is “— (Unless otherwise indicated with a numerical value, the percent remaining activity is baseline or about zero, i.e. as indicated by “—”)”. Take `O=C(C1CN(S(=O)(=O)c2cccc(-n3cnnn3)c2)C1)N1CCN(c2ccncc2)CC1` [B72]: the IC50 was > 10000 nM. Besides, the “Remaining Activity (%)” value under setting [1] was “≧80%”.
